Reference: US20050260748A1, “Adult stem cells and uses thereof” (Michigan State University, priority 2004, published 2005)

How the values were obtained:
[1] = system: mesenchymal stem cells (adipose stem cells); experiment: Effect of lovastatin on formation of calcified ECM during osteogenic differentiation of adipose stem cells; format: cell-based, human
Experimental: Adipose stem cells were tested for their ability to differentiate into osteocytes by culturing the stem cells in a medium composed of a modified MEM (Chang et al. (1981) Somatic Cell Genetics 7: 235) with 10% FBS and supplemented with 0.1 μM dexamethasone, 50 μM L-ascorbate-2-phosphate, and 10 mM […] disodium for about two to four weeks. Osteogenesis was identified by the presence of calcified extracellular matrix (ECM) in unstained cells (FIG. 32(a)) or using Von Kossa staining (FIG. 32(b)), the quantitative measurement of calcium in calcified ECM (Zuk et al. (2001) Tissue Engineering 7: 211), and the quantitative measurement of calcium in culture medium.
Osteoporosis is a disorder that occurs when the amount of bone removed from the skeleton by bone-resorbing osteoclasts exceeds the amount of bone formed by osteoblasts. Statins may decrease bone resorption by preventing osteoclast activation that is mediated by farnesyl-pp and geranylgeranyl-pp (Cruz et al., (2002) Cleveland Clinic J. Med. 69:277-288). Experiments were performed to test the effect of lovastatin on the formation of calcified ECM using adipocyte cells that were differentiated into osteocytes as described supra. […]

L1SV1A1 cells = experiment: Albumin expression by immunostaining in immortal liver cell line cultured with hepatocyte growth factor; format: cell-based, human; conditions: HGF 20 ng/ml in modified Eagle's MEM with high calcium; days after initiation of induction
Experimental: Both immunostaining and Western blotting were used to characterize gene expression for clonally derived liver cell culture. For immunostaining, the cells grown in 35 mm plates were washed with phosphate-buffered saline (PBS) and fixed with 4% paraformaldehyde in PBS. After rinsing with PBS, the cells were permeabilized (0.5% Triton® X-100, 2% BSA, and 0.05% NaN3 in PBS) for 10 minutes. The cells were then incubated with the primary antibody diluted to the required concentration in PBS/Triton® X-100/BSA overnight at room temperature. After rinsing with PBS, the cells were incubated with a secondary antibody conjugated with FITC or Cy3 in PBS/Triton/BSA buffer for 1 hour at room temperature. […] After thoroughly washing the cells with PBS, the phase image and fluorescence of cells was observed and recorded using a Nikon Elipse TE 300 microscope connected to a digital camera and computer. […]
Furthermore, cells of the immortal liver cell line L1SV1A1, derived from HL1-1 (described infra), that were cultured in the modified Eagle's MEM (Chang et al. (1981) Somat. Cell Genet. 7: 235-53) containing hepatocyte growth factor (HGF) (He et al. (2003) Differentiation 71: 281-90) (20 ng/ml) expressed the hepatocyte protein, albumin, as detected by immunostaining (FIGS. 21(a)-21(c)). […]

Compound	formation of calcified ECM (microscopic inspection) ([1]; 0.2 μM lovastatin added with osteogenic medium, compared to induced control cultures without lovastatin)	total calcium ([1]; 0.2 μM lovastatin in osteogenic medium vs induced control, FIG. 35)	expression of the hepatocyte protein albumin (immunostaining) (L1SV1A1 cells)
CC[C@H](C)C(=O)O[C@H]1C[C@@H](C)C=C2C=C[C@H](C)[C@H](CC[C@@H]3C[C@@H](O)CC(=O)O3)[C@H]21 [lovastatin]	significantly less formation of calcified ECM	confirmed this observation	–
hepatocyte growth factor: hepatocyte growth factor (HGF), used as hepatocyte differentiation agent	–	–	detectable at 33 days but not at 22 days
